Source: paper PMC5218480 (PLoS ONE, 2017)

System: MV-4-11 cells
Assay: Gene expression microarray analysis (Affymetrix PrimeView) and GSEA
Assay type: cell-based, human
Design: RFU PODN (11730768_x_at) / Fold change /veh PODN (11730768_x_at) / RFU LINC00158 (11744669_a_at) / Fold change /veh LINC00158 (11744669_a_at) / RFU DUSP10 (11751237_a_at) / Fold change /veh DUSP10 (11751237_a_at) / RFU ID3 (11757404_x_at) / Fold change /veh ID3 (11757404_x_at) / RFU PLEKHG5 (11737974_s_at) / Fold change /veh PLEKHG5 (11737974_s_at) / RFU LRRC4B (11730491_at) / Fold change /veh LRRC4B (11730491_at) / RFU GIMAP4 (11747438_a_at) / Fold change /veh GIMAP4 (11747438_a_at) / RFU KRT8 (11758183_x_at) / Fold change /veh KRT8 (11758183_x_at) / RFU CNN1 (11734310_a_at) / Fold change /veh CNN1 (11734310_a_at) / RFU VPS37D (11726825_at) / Fold change /veh VPS37D (11726825_at) / RFU C10orf10 (11716522_x_at) / Fold change /veh C10orf10 (11716522_x_at) / RFU KIR2DL2 /// KIR2DL4 /// KIR2DL5A /// KIR2DL5B /// KIR2DS1 /// KIR2DS2 /// KIR2DS3 /// KIR2DS4 /// KIR3DL3 /// KIR3DL3 /// KIR3DS1 (11738374_at) / Fold change /veh KIR2DL2 /// KIR2DL4 /// KIR2DL5A /// KIR2DL5B /// KIR2DS1 /// KIR2DS2 /// KIR2DS3 /// KIR2DS4 /// KIR3DL3 /// KIR3DL3 /// KIR3DS1 (11738374_at) / RFU C1QL1 (11718748_at) / Fold change /veh C1QL1 (11718748_at) / RFU TMPRSS4 (11747572_a_at) / Fold change /veh TMPRSS4 (11747572_a_at) / RFU HAMP (11756126_x_at) / Fold change /veh HAMP (11756126_x_at) / RFU RNFT2 (11725882_a_at) / Fold change /veh RNFT2 (11725882_a_at) / RFU NR4A2 (11747474_a_at) / Fold change /veh NR4A2 (11747474_a_at) / RFU ABCC12 (11746883_a_at) / Fold change /veh ABCC12 (11746883_a_at) / RFU TMEM136 (11760407_x_at) / Fold change /veh TMEM136 (11760407_x_at) / RFU CLDN22 /// WWC2 (11732394_at) / Fold change /veh CLDN22 /// WWC2 (11732394_at) / RFU HLA-DPB1 (11760878_x_at) / Fold change /veh HLA-DPB1 (11760878_x_at) / RFU SPINT1 (11716480_a_at) / Fold change /veh SPINT1 (11716480_a_at) / RFU GAP43 (11754022_s_at) / Fold change /veh GAP43 (11754022_s_at) / RFU A4GNT (11735810_at) / Fold change /veh A4GNT (11735810_at) / RFU PRB3 (11715151_x_at) / Fold change /veh PRB3 (11715151_x_at) / RFU TUBB4B (11761932_at) / Fold change /veh TUBB4B (11761932_at) / RFU CAPN14 (11732068_a_at) / Fold change /veh CAPN14 (11732068_a_at) / RFU TMCC2 (11721928_a_at) / Fold change /veh TMCC2 (11721928_a_at) / RFU IRGQ (11745062_a_at) / Fold change /veh IRGQ (11745062_a_at) / RFU FAM174B (11720279_a_at) / Fold change /veh FAM174B (11720279_a_at) / RFU TMPRSS4 (11748680_a_at) / Fold change /veh TMPRSS4 (11748680_a_at) / RFU FAM212B (11763350_a_at) / Fold change /veh FAM212B (11763350_a_at) / RFU PLEKHG5 (11743358_a_at) / Fold change /veh PLEKHG5 (11743358_a_at) / RFU ZSCAN30 (11745921_a_at) / Fold change /veh ZSCAN30 (11745921_a_at) / RFU CMKLR1 (11741424_a_at) / Fold change /veh CMKLR1 (11741424_a_at) / RFU LOC101060620 /// MAPK8IP1 (11723275_at) / Fold change /veh LOC101060620 /// MAPK8IP1 (11723275_at) / RFU SPTSSB (11747773_x_at) / Fold change /veh SPTSSB (11747773_x_at) / RFU PRSS12 (11739890_at) / Fold change /veh PRSS12 (11739890_at) / RFU BIN1 (11741810_x_at) / Fold change /veh BIN1 (11741810_x_at) / RFU WNT11 (11732464_a_at) / Fold change /veh WNT11 (11732464_a_at) / RFU C10orf10 (11716521_a_at) / Fold change /veh C10orf10 (11716521_a_at) / RFU C5orf56 (11738089_at) / Fold change /veh C5orf56 (11738089_at) / RFU CYB561 (11721691_x_at) / Fold change /veh CYB561 (11721691_x_at) / RFU ANKRD19P (11752326_a_at) / Fold change /veh ANKRD19P (11752326_a_at) / RFU OR2T12 /// OR2T33 /// OR2T8 (11738714_s_at) / Fold change /veh OR2T12 /// OR2T33 /// OR2T8 (11738714_s_at) / RFU VCAN (11748164_a_at) / Fold change /veh VCAN (11748164_a_at) / RFU JSRP1 (11732532_at) / Fold change /veh JSRP1 (11732532_at) / RFU KRTAP10-11 (11738290_x_at) / Fold change /veh KRTAP10-11 (11738290_x_at) / RFU MYO3A (11730013_a_at) / Fold change /veh MYO3A (11730013_a_at) / RFU EBF3 (11725865_a_at) / Fold change /veh EBF3 (11725865_a_at) / RFU CAMK2N1 (11719241_x_at) / Fold change /veh CAMK2N1 (11719241_x_at) / RFU C5orf56 (11738088_a_at) / Fold change /veh C5orf56 (11738088_a_at) / RFU OLFML3 (11715873_a_at) / Fold change /veh OLFML3 (11715873_a_at) / RFU LOC100653217 /// NTM (11731650_a_at) / Fold change /veh LOC100653217 /// NTM (11731650_a_at) / RFU MAPK11 (11762145_a_at) / Fold change /veh MAPK11 (11762145_a_at) / RFU FIZ1 (11724087_x_at) / Fold change /veh FIZ1 (11724087_x_at) / RFU OASL (11726364_x_at) / Fold change /veh OASL (11726364_x_at) / RFU SOX15 (11748057_x_at) / Fold change /veh SOX15 (11748057_x_at) / RFU CD79A (11719716_a_at) / Fold change /veh CD79A (11719716_a_at) / RFU HIST1H1D (11736915_at) / Fold change /veh HIST1H1D (11736915_at) / RFU CASKIN2 (11723855_a_at) / Fold change /veh CASKIN2 (11723855_a_at) / RFU LOC730098 (11760151_x_at) / Fold change /veh LOC730098 (11760151_x_at) / RFU OR4N2 (11742367_at) / Fold change /veh OR4N2 (11742367_at) / RFU PRRT2 (11749266_a_at) / Fold change /veh PRRT2 (11749266_a_at) / RFU SNX32 (11753110_a_at) / Fold change /veh SNX32 (11753110_a_at) / RFU CDHR5 (11726645_a_at) / Fold change /veh CDHR5 (11726645_a_at) / RFU RCAN1 (11760418_a_at) / Fold change /veh RCAN1 (11760418_a_at) / RFU FAM167A (11723789_a_at) / Fold change /veh FAM167A (11723789_a_at) / RFU FAM26E (11764081_at) / Fold change /veh FAM26E (11764081_at) / RFU ISYNA1 (11749810_s_at) / Fold change /veh ISYNA1 (11749810_s_at) / RFU ACY1 (11761880_at) / Fold change /veh ACY1 (11761880_at) / RFU 11764098_at / Fold change /veh 11764098_at / RFU SAMD14 (11745864_x_at) / Fold change /veh SAMD14 (11745864_x_at) / RFU NPB (11741838_a_at) / Fold change /veh NPB (11741838_a_at) / RFU TMPRSS6 (11731388_a_at) / Fold change /veh TMPRSS6 (11731388_a_at) / RFU KRTAP10-2 (11738614_at) / Fold change /veh KRTAP10-2 (11738614_at) / RFU ARHGAP8 /// PRR5-ARHGAP8 (11727945_x_at) / Fold change /veh ARHGAP8 /// PRR5-ARHGAP8 (11727945_x_at) / RFU KRTAP5-7 /// NADSYN1 (11734609_at) / Fold change /veh KRTAP5-7 /// NADSYN1 (11734609_at) / RFU RASL12 (11751679_a_at) / Fold change /veh RASL12 (11751679_a_at) / RFU CDKN2B (11736163_a_at) / Fold change /veh CDKN2B (11736163_a_at) / RFU PRF1 (11729649_at) / Fold change /veh PRF1 (11729649_at) / RFU, ZNF638 /// ZNF638-IT1 / Fold change vs veh, ZNF638 /// ZNF638-IT1 / RFU, PANK3 / Fold change vs veh, PANK3 / RFU, SH3YL1 / Fold change vs veh, SH3YL1 / RFU, ZEB2 / Fold change vs veh, ZEB2 / RFU, NRIP1 / Fold change vs veh, NRIP1 / RFU, PTTG1IP / Fold change vs veh, PTTG1IP / RFU, CAPN2 / Fold change vs veh, CAPN2 / RFU, MED14 / Fold change vs veh, MED14 / RFU, SNORA58 / Fold change vs veh, SNORA58 / RFU, C1orf63 / Fold change vs veh, C1orf63 / RFU, LRRFIP1 / Fold change vs veh, LRRFIP1 / RFU, NDUFAF7 / Fold change vs veh, NDUFAF7 / RFU, SLC12A2 / Fold change vs veh, SLC12A2 / RFU, IBTK / Fold change vs veh, IBTK / RFU, ESF1 / Fold change vs veh, ESF1 / Fold change vs veh, TMEM50B / RFU, TAOK1 / Fold change vs veh, TAOK1 / RFU, ACBD3 / Fold change vs veh, ACBD3 / RFU, TMA16 / Fold change vs veh, TMA16 / RFU, RWDD3 / Fold change vs veh, RWDD3 / RFU, BCAT1 / Fold change vs veh, BCAT1 / RFU, EDEM3 / Fold change vs veh, EDEM3 / RFU, TMEM33 / Fold change vs veh, TMEM33 / RFU, WDR75 / Fold change vs veh, WDR75 / RFU, AHCTF1 / Fold change vs veh, AHCTF1 / RFU, TFRC / Fold change vs veh, TFRC / RFU, ZDHHC17 / Fold change vs veh, ZDHHC17 / RFU, NOM1 / Fold change vs veh, NOM1 / RFU, ARL8B / Fold change vs veh, ARL8B / RFU, ZBTB11 / Fold change vs veh, ZBTB11 / RFU, TAMM41 / Fold change vs veh, TAMM41 / RFU, KIAA1704 /// LOC100996395 / Fold change vs veh, KIAA1704 /// LOC100996395 / RFU, ING1 / Fold change vs veh, ING1 / RFU, TRMT61B / Fold change vs veh, TRMT61B / RFU, FUBP3 / Fold change vs veh, FUBP3 / RFU, TP53 / Fold change vs veh, TP53 / RFU, TNKS2 / Fold change vs veh, TNKS2 / RFU, ZFP14 / Fold change vs veh, ZFP14 / RFU, ACTR2 / Fold change vs veh, ACTR2 / RFU, PPP3R1 / Fold change vs veh, PPP3R1 / RFU, PIK3R1 / Fold change vs veh, PIK3R1 / RFU, HNRNPA1 / Fold change vs veh, HNRNPA1 / RFU, RNF170 / Fold change vs veh, RNF170 / RFU, ZNF28 / Fold change vs veh, ZNF28 / RFU, RNGTT / Fold change vs veh, RNGTT / RFU, OGT / Fold change vs veh, OGT / RFU, BRD1 / Fold change vs veh, BRD1 / RFU, MARS / Fold change vs veh, MARS / RFU, ZNF655 / Fold change vs veh, ZNF655 / RFU, FAHD1 / Fold change vs veh, FAHD1 / RFU, BDP1 / Fold change vs veh, BDP1 / RFU, LRRCC1 / Fold change vs veh, LRRCC1 / RFU, ARID1A / Fold change vs veh, ARID1A / RFU, ZNF146 / Fold change vs veh, ZNF146 / RFU, ZNF330 / Fold change vs veh, ZNF330 / RFU, GPN3 / Fold change vs veh, GPN3 / RFU, C9orf123 / Fold change vs veh, C9orf123 / RFU, N4BP2L2 / Fold change vs veh, N4BP2L2 / RFU, ARFIP1 / Fold change vs veh, ARFIP1 / RFU, FAM179B / Fold change vs veh, FAM179B / RFU, BCL10 / Fold change vs veh, BCL10 / RFU, UHRF1BP1L / Fold change vs veh, UHRF1BP1L / RFU, BET1 / Fold change vs veh, BET1 / RFU, CNOT2 / Fold change vs veh, CNOT2 / RFU, ZNF268 / Fold change vs veh, ZNF268 / Fold change vs veh, ZNF507 / RFU, DGCR2 / Fold change vs veh, DGCR2 / RFU, WDSUB1 / Fold change vs veh, WDSUB1 / Fold change vs veh, HSP90B1 /// MIR3652 / RFU, ADSS / Fold change vs veh, ADSS / RFU, GK / Fold change vs veh, GK / RFU, ZNF148 / Fold change vs veh, ZNF148 / RFU, TAF9 / Fold change vs veh, TAF9 / RFU, SLC1A5 / Fold change vs veh, SLC1A5 / RFU, SLMO2 / Fold change vs veh, SLMO2 / RFU, ABCC4 / Fold change vs veh, ABCC4 / RFU, LOC101060439 /// RAP1B / Fold change vs veh, LOC101060439 /// RAP1B / RFU, RFX7 / Fold change vs veh, RFX7 / RFU, GTPBP10 / Fold change vs veh, GTPBP10 / RFU, CNEP1R1 / Fold change vs veh, CNEP1R1 / RFU, BIVM-ERCC5 /// ERCC5 / Fold change vs veh, BIVM-ERCC5 /// ERCC5 / RFU, ILF3 / Fold change vs veh, ILF3 / RFU 11762660_at / Fold change /veh 11762660_at / RFU VCAN (11757783_s_at) / Fold change /veh VCAN (11757783_s_at) / RFU DDX43 (11728927_at) / Fold change /veh DDX43 (11728927_at) / RFU KRT8 (11758188_x_at) / Fold change /veh KRT8 (11758188_x_at) / RFU NKD1 (11759106_at) / Fold change /veh NKD1 (11759106_at) / RFU SRD5A1 (11742802_a_at) / Fold change /veh SRD5A1 (11742802_a_at) / RFU TPSAB1 /// TPSB2 (11721975_s_at) / Fold change /veh TPSAB1 /// TPSB2 (11721975_s_at) / RFU GSTM3 (11746129_a_at) / Fold change /veh GSTM3 (11746129_a_at) / RFU IL23R (11737362_x_at) / Fold change /veh IL23R (11737362_x_at) / RFU TMEM51 (11727254_a_at) / Fold change /veh TMEM51 (11727254_a_at) / RFU PIWIL2 (11732686_x_at) / Fold change /veh PIWIL2 (11732686_x_at) / RFU ORM1 (11744905_x_at) / Fold change /veh ORM1 (11744905_x_at) / RFU CCDC152 (11743942_at) / Fold change /veh CCDC152 (11743942_at) / RFU ECM1 (11717891_a_at) / Fold change /veh ECM1 (11717891_a_at) / RFU IL23R (11748794_a_at) / Fold change /veh IL23R (11748794_a_at) / RFU TNFAIP8L3 (11732012_x_at) / Fold change /veh TNFAIP8L3 (11732012_x_at) / RFU MBOAT4 (11741988_at) / Fold change /veh MBOAT4 (11741988_at) / RFU 11764193_at / Fold change /veh 11764193_at / RFU TMEM53 (11763286_at) / Fold change /veh TMEM53 (11763286_at) / RFU MAGEB2 (11727129_at) / Fold change /veh MAGEB2 (11727129_at) / RFU TMEM200A (11744735_a_at) / Fold change /veh TMEM200A (11744735_a_at) / RFU CCDC152 (11751479_a_at) / Fold change /veh CCDC152 (11751479_a_at) / RFU FAM211A (11726209_a_at) / Fold change /veh FAM211A (11726209_a_at) / RFU RGS16 (11746705_a_at) / Fold change /veh RGS16 (11746705_a_at) / RFU VCAN (11755009_s_at) / Fold change /veh VCAN (11755009_s_at) / RFU RHOB (11743442_s_at) / Fold change /veh RHOB (11743442_s_at) / RFU RGS16 (11720943_a_at) / Fold change /veh RGS16 (11720943_a_at) / RFU RGS16 (11720944_at) / Fold change /veh RGS16 (11720944_at) / RFU, VPS4B / Fold change vs veh, VPS4B / RFU, CREB1 / Fold change vs veh, CREB1 / RFU, DNAJC13 / Fold change vs veh, DNAJC13 / RFU, GNAQ / Fold change vs veh, GNAQ / RFU, CDK5R1 / Fold change vs veh, CDK5R1 / RFU, ZRANB3 / Fold change vs veh, ZRANB3 / RFU, CUL4A / Fold change vs veh, CUL4A / RFU, CCNY / Fold change vs veh, CCNY / RFU, UFL1 / Fold change vs veh, UFL1 / RFU, COG3 / Fold change vs veh, COG3 / RFU, DIAPH2 / Fold change vs veh, DIAPH2 / RFU, SKA2 / Fold change vs veh, SKA2 / RFU, AFF3 / Fold change vs veh, AFF3 / RFU, LMF1 / Fold change vs veh, LMF1 / RFU, IPO11 / Fold change vs veh, IPO11 / RFU, DFFB / Fold change vs veh, DFFB / RFU, FOXP1 / Fold change vs veh, FOXP1 / RFU, CARD8 / Fold change vs veh, CARD8 / RFU, STRN3 / Fold change vs veh, STRN3 / RFU, ADK / Fold change vs veh, ADK / RFU, RASSF2 / Fold change vs veh, RASSF2 / RFU, WIPF1 / Fold change vs veh, WIPF1 / RFU, LARP1B / Fold change vs veh, LARP1B / RFU, RASA1 / Fold change vs veh, RASA1 / RFU, RB1 / Fold change vs veh, RB1 / RFU, PPFIA1 / Fold change vs veh, PPFIA1 / RFU, MAT2A / Fold change vs veh, MAT2A / RFU, CCT5 / Fold change vs veh, CCT5 / RFU, WDR92 / Fold change vs veh, WDR92 / RFU, CUX1 / Fold change vs veh, CUX1 / RFU, TTC7A / Fold change vs veh, TTC7A / RFU, TMEM135 / Fold change vs veh, TMEM135 / RFU, DEPTOR / Fold change vs veh, DEPTOR / RFU, CPM / Fold change vs veh, CPM / RFU, DNAJB6 / Fold change vs veh, DNAJB6 / RFU, CACNA2D3 / Fold change vs veh, CACNA2D3 / RFU, DTX4 / Fold change vs veh, DTX4 / RFU, TFCP2 / Fold change vs veh, TFCP2 / RFU, GMCL1 /// GMCL1P1 / Fold change vs veh, GMCL1 /// GMCL1P1 / RFU, AEBP2 / Fold change vs veh, AEBP2 / RFU, SNHG1 /// SNORD22 /// SNORD25 /// SNORD26 /// SNORD27 /// SNORD28 /// SNORD29 /// SNORD31 / Fold change vs veh, SNHG1 /// SNORD22 /// SNORD25 /// SNORD26 /// SNORD27 /// SNORD28 /// SNORD29 /// SNORD31 / Fold change (Aza/veh), C12orf56 (ProbeSet 11735607_a_at) / Fold change (ACY-1035/veh), C12orf56 (ProbeSet 11735607_a_at) / Fold change (Aza/veh), FGFR1OP (ProbeSet 11751329_s_at) / Fold change (ACY-1035/veh), FGFR1OP (ProbeSet 11751329_s_at) / Fold change (Aza/veh), VPS36 (ProbeSet 11739960_a_at) / Fold change (ACY-1035/veh), VPS36 (ProbeSet 11739960_a_at) / RFU SYPL1 (11715823_x_at) / Fold change /veh SYPL1 (11715823_x_at) / RFU IGFBP7 (11715501_s_at) / Fold change /veh IGFBP7 (11715501_s_at) / RFU REEP3 (11722064_at) / Fold change /veh REEP3 (11722064_at) / RFU IGLL1 (11728026_x_at) / Fold change /veh IGLL1 (11728026_x_at): dose or concentration left out as unconfirmed
Conditions: MV-4-11 cells, 48 hours

Nc1ccc(-c2cccs2)cc1NC(=O)c1ccc2c(c1)cc(C1CC1)n2CCN1CCOCC1 [ACY-1035] was tested, and the “RFU LOC730098 (11760151_x_at)” value was 35.48 RFU.
